# From patent US20150190396A1, “TREATMENT OF TYPE I AND TYPE II DIABETES” (Melior Pharmaceuticals I, Inc., priority 2011, published 2015)
# “Also recorded” adds a separate entry of the source.
# Experiments:
# Format in all cases: in vivo
# [1] = system: streptozocin Type I diabetic male CD-1: ICR mice; assay: Streptozocin Type I diabetic mice, insulin tolerance test, blood glucose
# Description: In the present study, male CD-1: ICR mice (Charles River) approximately 8 weeks of age were used. Streptozocin administration to mice destroys pancreatic β-cells and is used to produce a model of Type I diabetes. In response to loss of pancreatic β-cells, mice become hyperglycemic. These mice are insulin responsive.
# Streptozocin administration: Streptozocin administration to mice was conducted by a standard method. Briefly, mice were administered STZ at a dose-level of 70 mg/kg on day 1, 3 and 8. Each administration was preceded by an 18 hour fast. Mice were administered insulin (0.5 U) on days 2 and 9. On day 11, blood glucose levels were measured. Mice with blood glucose levels less than 300 mg/dL were excluded from the study. Mice were randomized to treatment groups.
# Mice were tested on the insulin tolerance test on day 14 after the initial STZ administration. Mice were administered insulin (0.35U s.c.) and then 30 minutes later administered Compound 102 (100 mg/kg i.p.).
# Blood glucose was measured 5, 15, 30, 60, 90, 120, 180, 240, 360, and 480 minutes after Compound 102 or vehicle administration. Blood was collected from a tail snip and drop of blood measured for glucose levels by glucometer (Accu-Chek Aviva Glucometers; Roche Diagnostics).
# Data are expressed as the average±SEM. Data were analyzed by two-way ANOVA followed by post-hoc Bonferroni test. N=6/group
# [2] = system: male DbDb Lep-deficient mice; assay: Db/Db Study 1: blood glucose after insulin and/or Compound 102
# Description: In the present study, male DbDb Lep-deficient mice (Harlan Laboratories) approximately 16 weeks of age were used. [table] Procedure: Mice were divided into 4 groups of 6 mice per group. Blood glucose levels were measured using Accu-Chek Aviva Glucometers (Roche Diagnostics). The times of blood glucose levels were measured up to 72 hours after administration. Glucometers were calibrated prior to each study. […] Glucose levels are reported as mg/dL. In study 1, animals were fasted for 4 hours prior to the administration of test articles and then continuously fasted through to the 8-hour time point. Animals were then provided food ad libitum until 4-hour prior to the 28-hour time point at which point they were fasted until the last blood glucose measurement time point. Data are expressed as the average±SEM. Data were analyzed by two-way ANOVA followed by post-hoc Bonferroni test. N=6/group.
# [3] = system: male DbDb Lep-deficient mice; assay: Db/Db Study 2: blood glucose 24-72 hours after insulin and/or Compound 102; conditions: for blood glucose levels compared with vehicle controls: twenty-four hours after administration alone, insulin 1.5 units/kg or Compound 102 100 mg/kg, 18 week old db/db mice
# Description: In the present study, male DbDb Lep-deficient mice (Harlan Laboratories) approximately 18 weeks of age were used. [table] Procedure: Mice were divided into 4 groups of 6 mice per group. Blood glucose levels were measured using Accu-Chek Aviva Glucometers (Roche Diagnostics). The times of blood glucose levels were measured up to 72 hours after administration. Glucometers were calibrated prior to each study. […] Glucose levels are reported as mg/dL. In study 2, animals were fasted for 4 hours prior to each blood glucose measurement time point and then returned to ad libitum food. Data are expressed as the average±SEM. Data were analyzed by two-way ANOVA followed by post-hoc Bonferroni test. N=6/group Results: A second study was conducted to repeat the findings of Compound 102 effects on insulin action in the 24-72 hours time window and specifically to follow the insulin/Compound 102 combination effect through until it returned to normal levels (i.e., that of vehicle-treated animals). In the second study, there were three differences from the first: 1) mice were 18 weeks of age at the time of study, 2) the insulin dose-level was reduced from 3 to 1.5 U/kg and 3) blood glucose levels were measured out until 72 hours after administration.
Molecule,"effect on insulin action / insulin-mediated blood glucose lowering ([1]; Compound 102 100 mg/kg i.p. 30 minutes after insulin, p<0.05, p<0.001 versus insulin alone, FIG. 3, 100 mg/kg)",insulin-mediated blood glucose reduction to ([1]; Compound 102 100 mg/kg i.p. administered 30 minutes after insulin (0.35)) [mg/dL],"effect on blood glucose levels ([1]; Compound 102 100 mg/kg i.p. alone, insulin depleted mice, up to 6 hours, 100 mg/kg)","blood glucose levels still reduced up to ([1]; Compound 102 100 mg/kg i.p. in combination with insulin, time after administration)","effect on blood glucose levels ([2]; Compound 102 100 mg/kg alone, 100 mg/kg)",blood glucose levels compared with vehicle controls [3],"blood glucose levels ([1]; insulin alone (0.35), 90 minutes after administration, baseline 546 mg/dL) [mg/dL]","time at which blood glucose levels returned to baseline levels ([1]; insulin alone (0.35), after administration) [h]",time by which blood glucose levels returned to baseline levels ([2]; insulin 3 units/kg alone) [h],"blood glucose levels ([2]; insulin 3 units/kg alone, three hours after administration, fasted 16 week old db/db mice, baseline averaged 482 mg/dL) [mg/dL]","blood glucose in the insulin treated group ([3]; insulin 1.5 units/kg alone, 24-72 hours window (elevation at 24 and 36 hour time points, rebound effect))"
Cc1cccc(Oc2cnc(=O)[nH]c2)c1 [Compound 102],potentiated the insulin effect; also recorded: potentiated and prolonged the actions of insulin; also recorded: potentiated and prolonged insulin-mediated blood glucose lowering,157,did not affect blood glucose levels at any time point up to 6 hours after administration,up to 6 hours,"did not significantly affect blood glucose levels at any time point after administration; also recorded: Small, but statistically insignificant lowering of blood glucose",not different from vehicle controls,,,,,
Insulin [reference compound],,,,,,not different from vehicle controls,263,4.5,≤ 8,166.5,does not show blood glucose lowering; also recorded: slightly elevated blood glucose
